Assay results taken from ChEMBL document CHEMBL4373736, “Synthesis and biological evaluation of panaxatriol derivatives against myocardial ischemia/reperfusion injury in the rat” (Eur J Med Chem, 2020).

Columns and labels:
Cardiac muscle cell [1] = assay: Cytotoxicity against Sprague-Dawley rat cardiomyocytes assessed as inhibition of cell growth at 10 uM treated for 50 hrs by MTT assay; assay type: cell-based
Cardiac muscle cell [2] = assay: Cytoprotective activity against OGD/reperfusion induced injury in Sprague-Dawley rat cardiomyocytes assessed as effect on cell viability at 1 uM pretreated for 24 hrs followed by OGD for 2 hrs and subsequent reperfusion for 24 hrs (reference value: 43.9 to 45.4 +/- 1.1 %); assay type: functional
Cardiac muscle cell [3] = assay: Cytoprotective activity against OGD/reperfusion induced injury in Sprague-Dawley rat cardiomyocytes assessed as effect on cell viability at 10 uM pretreated for 24 hrs followed by OGD for 2 hrs and subsequent reperfusion for 24 hrs (reference value: 43.9 to 45.4 +/- 1.1 %); assay type: functional
Cardiac muscle cell [4] = assay: Cytoprotective activity against OGD/reperfusion induced injury in Sprague-Dawley rat cardiomyocytes assessed as effect on cell viability at 0.1 uM pretreated for 24 hrs followed by OGD for 2 hrs and subsequent reperfusion for 24 hrs (reference value: 43.9 to 45.4 +/- 1.1 %); assay type: functional

SMILES	Activity (Cardiac muscle cell [1])	Activity (Cardiac muscle cell [2]) [%]	Activity (Cardiac muscle cell [3]) [%]	Activity (Cardiac muscle cell [4]) [%]
CC1(C)CCC[C@](C)([C@H]2CC[C@]3(C)[C@@H]2[C@H](O)C[C@@H]2[C@@]4(C)Cc5c(n[nH]c5CO)C(C)(C)[C@@H]4[C@H](O)C[C@]23C)O1	Non-Toxic	64.6	75.7	55
COc1ccc(-c2nc3c(s2)C[C@]2(C)[C@H]4C[C@@H](O)[C@@H]5[C@@H]([C@@]6(C)CCCC(C)(C)O6)CC[C@@]5(C)[C@]4(C)CC(=O)[C@H]2C3(C)C)cc1	Non-Toxic	71.3	78.5	64.9
CC1(C)CCC[C@](C)([C@H]2CC[C@]3(C)[C@@H]2[C@H](O)C[C@@H]2[C@@]4(C)Cc5c([nH]c6c(F)cccc56)C(C)(C)[C@@H]4C(=O)C[C@]23C)O1	Non-Toxic	58	62.6	53.5
CC(=O)Nc1nc2c(s1)C[C@]1(C)[C@H]3C[C@@H](O)[C@@H]4[C@@H]([C@@]5(C)CCCC(C)(C)O5)CC[C@@]4(C)[C@]3(C)CC(=O)[C@H]1C2(C)C	Non-Toxic	53.6	61.2	48.6
CNc1nc2c(s1)C[C@]1(C)[C@H]3C[C@@H](O)[C@@H]4[C@@H]([C@@]5(C)CCCC(C)(C)O5)CC[C@@]4(C)[C@]3(C)CC(=O)[C@H]1C2(C)C	Non-Toxic	52.7	58.8	47
CC1(C)CCC[C@](C)([C@H]2CC[C@]3(C)[C@@H]2[C@H](O)C[C@@H]2[C@@]4(C)Cc5sc(-c6ccc(C(F)(F)F)cc6)nc5C(C)(C)[C@@H]4C(=O)C[C@]23C)O1	Non-Toxic	57.9	62.9	51.6
CC1(C)CCC[C@](C)([C@H]2CC[C@]3(C)[C@@H]2[C@H](O)C[C@@H]2[C@@]4(C)Cc5sc(N)nc5C(C)(C)[C@@H]4C(=O)C[C@]23C)O1	Non-Toxic	70.2	77.7	60.2
Cc1ccc2[nH]c3c(c2c1)C[C@]1(C)[C@H]2C[C@@H](O)[C@@H]4[C@@H]([C@@]5(C)CCCC(C)(C)O5)CC[C@@]4(C)[C@]2(C)CC(=O)[C@H]1C3(C)C	Non-Toxic	66.4	73.8	58.9
CC1(C)CCC[C@](C)([C@H]2CC[C@]3(C)[C@@H]2[C@H](O)C[C@@H]2[C@@]4(C)Cc5sc(CC#N)nc5C(C)(C)[C@@H]4C(=O)C[C@]23C)O1	Non-Toxic	64.6	70.1	58.6
CC1(C)CCC[C@](C)([C@H]2CC[C@]3(C)[C@@H]2[C@H](O)C[C@@H]2[C@@]4(C)Cc5c([nH]c6ccccc56)C(C)(C)[C@@H]4C(=O)C[C@]23C)O1	Non-Toxic	64.3	71.1	56.9
CCOC(=O)c1noc2c1C[C@]1(C)[C@H]3C[C@@H](O)[C@@H]4[C@@H]([C@@]5(C)CCCC(C)(C)O5)CC[C@@]4(C)[C@]3(C)C[C@@H](O)[C@H]1C2(C)C	Non-Toxic	67.9	74.7	57.5
CC1(C)CCC[C@](C)([C@H]2CC[C@]3(C)[C@@H]2[C@H](O)C[C@@H]2[C@@]4(C)Cc5sc(-c6ccccc6)nc5C(C)(C)[C@@H]4C(=O)C[C@]23C)O1	Non-Toxic	68	75.3	59.1
